pIC50: −log10 of the molar value.
System: IFNα-induced pSTAT5 (pY694) in CD3 positive cells of human whole blood
Test: IFNα-Induced STAT Phosphorylation in Human Whole Blood
Format: cell-based
Details: 1 h compound incubation, 1000 U/mL recombinant human IFNα A/D for 15 min, pSTAT5 in CD3 positive population, read-out: Human WB IFNα-Induced Stat Phosph. (IC50)
Procedure, shortened: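 Read-out is median fluorescence intensity of pSTAT5 (pY694) in the CD3-positive gate, by flow cytometry after fix/lyse and permeabilization. Before that, whole human blood anticoagulated with EDTA or ACD-A received compound for an hour and 1000 U/mL IFNα A/D for 15 min.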

Compound | pIC50
[2H]C([2H])([2H])NC(=O)c1cnc(NC(=O)C2CC2)cc1Nc1cccc(-c2ccn(CCNC(=O)COC)n2)c1OC [Example 472] | 6.54
[2H]C([2H])([2H])NC(=O)c1cnc(NC(=O)C2CC2)cc1Nc1cccc(-c2ccn(CCNC(=O)COC)n2)c1OC [Example 473] | < 5.00

Same assay, conditions: Homo sapiens, 1 h compound incubation, 1000 U/mL recombinant human IFNα A/D for 15 min, pSTAT5 in CD3 positive population, read-out: Human WB IFNα-Induced Stat Phosph. (IC50)

Compound | pIC50
[2H]C([2H])([2H])NC(=O)c1nnc(NC(=O)C2CC2)cc1Nc1cccc(-c2ccn(CCN)n2)c1OC [Example 465] | 6.89
[2H]C([2H])([2H])NC(=O)c1nnc(NC(=O)C2CC2)cc1Nc1cccc(-c2ccn(CCNS(C)(=O)=O)n2)c1OC [Example 466] | 6.38
[2H]C([2H])([2H])NC(=O)c1nnc(NC(=O)C2CC2)cc1Nc1cccc(-c2ccn(CCNC(=O)CO)n2)c1OC [Example 467] | 6.70
[2H]C([2H])([2H])NC(=O)c1nnc(NC(=O)C2CC2)cc1Nc1cccc(-c2ccn(CCNC(C)=O)n2)c1OC [Example 468] | 6.57
[2H]C([2H])([2H])NC(=O)c1nnc(NC(=O)C2CC2)cc1Nc1cccc(-c2ccn(CCNC(=O)COC)n2)c1OC [Example 469] | 6.70
[2H]C([2H])([2H])NC(=O)c1nnc(NC(=O)C2CC2)cc1Nc1cccc(-c2ccn(CCNC(=O)CC#N)n2)c1OC [Example 470] | 6.47
[2H]C([2H])([2H])NC(=O)c1nnc(NC(=O)C2CC2)cc1Nc1cccc(-c2ccn(CC(=O)NCCOC)n2)c1OC [Example 471] | 5.80
[2H]C([2H])([2H])NC(=O)c1nnc(NC(=O)C2CC2)cc1Nc1cccc(-c2ccn(CCNC[C@H](O)CC)n2)c1OC [Example 474] | 5.45
[2H]C([2H])([2H])NC(=O)c1nnc(NC(=O)C2CC2)cc1Nc1cccc(-c2ccn(CCN(C[C@H](O)CC)C[C@@H](O)CC)n2)c1OC [Example 475] | 5.63
[2H]C([2H])([2H])NC(=O)c1nnc(NC(=O)C2CC2)cc1Nc1cccc(-c2cc(C(=O)N3CCN(CCO)CC3)n(C)n2)c1OC [Example 476] | 7.22
[2H]C([2H])([2H])NC(=O)c1nnc(NC(=O)C2CC2)cc1Nc1cccc(-c2cc(C(=O)NCCC#N)n(C)n2)c1OC [Example 477] | 5.96
[2H]C([2H])([2H])NC(=O)c1nnc(NC(=O)C2CC2)cc1Nc1cccc(-c2cc(C(=O)N3CCN(O)CC3)n(C)n2)c1OC [Example 478] | 6.82
[2H]C([2H])([2H])NC(=O)c1nnc(NC(=O)C2CC2)cc1Nc1cccc(-c2cc(C(=O)N3CCCCC3)n(C)n2)c1OC [Example 479] | 6.96
[2H]C([2H])([2H])NC(=O)c1nnc(NC(=O)C2CC2)cc1Nc1cccc(-c2cc(C(=O)N3CCN(C)CC3)n(C)n2)c1OC [Example 480] | 7.15
[2H]C([2H])([2H])NC(=O)c1nnc(NC(=O)C2CC2)cc1Nc1cccc(-c2cc(C(=O)N(C)CCOC)n(C)n2)c1OC [Example 481] | 6.41
[2H]C([2H])([2H])NC(=O)c1nnc(NC(=O)C2CC2)cc1Nc1cccc(-c2cc(C(=O)N3CCCC3)n(C)n2)c1OC [Example 482] | 6.82
[2H]C([2H])([2H])NC(=O)c1nnc(NC(=O)C2CC2)cc1Nc1cccc(-c2cc(C(=O)N(C)C)n(C)n2)c1OC [Example 483] | 7.22
[2H]C([2H])([2H])NC(=O)c1nnc(NC(=O)C2CC2)cc1Nc1cc(F)cc(-c2cc(C(=O)N3CCN(CCO)CC3)n(C)n2)c1OC [Example 484] | 7.00
[2H]C([2H])([2H])NC(=O)c1nnc(NC(=O)C2CC2)cc1Nc1cc(F)cc(-c2cc(C(=O)N3CCOCC3)n(C)n2)c1OC [Example 485] | 6.89
[2H]C([2H])([2H])NC(=O)c1cnc(NC(=O)C2CC2)cc1Nc1cccc(-c2cc(C(=O)N(C)C)n(C)n2)c1OC [Example 486] | 7.22
[2H]C([2H])([2H])NC(=O)c1nnc(NC(=O)C2CC2)cc1Nc1cccc(-c2cc(C(C)(C)O)n(C)n2)c1OC [Example 487] | 6.70
[2H]C([2H])([2H])NC(=O)c1cnc(NC(=O)C2CC2)cc1Nc1cccc(-c2cc(C(=O)N3CCS(=O)(=O)CC3)n(C)n2)c1OC [Example 488] | 6.28
[2H]C([2H])([2H])NC(=O)c1nnc(NC(=O)C2CC2)cc1Nc1cc(F)cc(-c2cc(C(C)(C)O)n(C)n2)c1OC [Example 489] | 6.54
[2H]C([2H])([2H])NC(=O)c1nnc(NC(=O)C2CC2)cc1Nc1cccc(-c2cc(C(=O)N3CC4CN(C)CC4C3)n(C)n2)c1OC (centres unmarked) [Example 491] | 6.59
[2H]C([2H])([2H])NC(=O)c1nnc(NC(=O)C2CC2)cc1Nc1cccc(-c2cc(C(=O)N3CCNCC3)n(C)n2)c1OC [Example 492] | 6.82
[2H]C([2H])([2H])NC(=O)c1nnc(NC(=O)C2CC2)cc1Nc1cccc(-c2cc(C(=O)N3CCN(C(C)=O)CC3)n(C)n2)c1OC [Example 493] | 7.40
[2H]C([2H])([2H])NC(=O)c1nnc(NC(=O)C2CC2)cc1Nc1cccc(-c2cc(C(=O)N3CCN(C(=O)OC)CC3)n(C)n2)c1OC [Example 494] | 6.60

Compound | pIC50
[2H]C([2H])([2H])NC(=O)c1nnc(NC(=O)C2CC2)cc1Nc1cc(F)cc(-c2cc(C(=O)N(C)C)n(C)n2)c1OC [Example 495] | 7.22
[2H]C([2H])([2H])NC(=O)c1nnc(NC(=O)C2CC2)cc1Nc1cc(F)cc(-c2cc(C(=O)N3CC4CN(C)CC4C3)n(C)n2)c1OC (centres unmarked) [Example 496] | 6.60
[2H]C([2H])([2H])NC(=O)c1nnc(NC(=O)C2CC2)cc1Nc1cc(F)cc(-c2cc(C(=O)N3CCN(C)CC3)n(C)n2)c1OC [Example 497] | 6.96
[2H]C([2H])([2H])NC(=O)c1nnc(NC(=O)C2CC2)cc1Nc1cc(F)cc(-c2cc(C(=O)N3C[C@@H](C)O[C@@H](C)C3)n(C)n2)c1OC [Example 499] | 6.74
[2H]C([2H])([2H])NC(=O)c1nnc(NC(=O)C2CC2)cc1Nc1cc(F)cc(-c2cc(NC(C)=O)n(C)n2)c1OC [Example 500] | 6.43
[2H]C([2H])([2H])NC(=O)c1nnc(NC(=O)C2CC2)cc1Nc1cc(F)cc(-c2cc(NS(C)(=O)=O)n(C)n2)c1OC [Example 501] | 5.95
[2H]C([2H])([2H])NC(=O)c1nnc(NC(=O)C2CC2)cc1Nc1cccc(-c2cc(C(=O)N3CCN(S(C)(=O)=O)CC3)n(C)n2)c1OC [Example 502] | 6.82
[2H]C([2H])([2H])NC(=O)c1nnc(NC(=O)C2CC2)cc1Nc1cc(F)cc(-c2cc(C(=O)N3CCS(=O)(=O)CC3)n(C)n2)c1OC [Example 503] | 6.07
[2H]C([2H])([2H])NC(=O)c1nnc(NC(=O)C2CC2)cc1Nc1cccc(-c2cc(C(=O)NCC34CCN(CC3)CC4)n(C)n2)c1OC [Example 504] | < 5.00
[2H]C([2H])([2H])NC(=O)c1nnc(NC(=O)C2CC2)cc1Nc1cc(F)cc(-c2cc(C(=O)N(C)CC)n(C)n2)c1OC [Example 505] | 6.74
[2H]C([2H])([2H])NC(=O)c1nnc(NC(=O)C2CC2)cc1Nc1cc(F)cc(-c2cc(C(=O)N(C)C(C)C)n(C)n2)c1OC [Example 506] | 6.60
[2H]C([2H])([2H])NC(=O)c1nnc(NC(=O)C2CC2)cc1Nc1cc(F)cc(-c2cc(C(=O)N3CCC[C@H]3CO)n(C)n2)c1OC [Example 507] | 6.96
[2H]C([2H])([2H])NC(=O)c1nnc(NC(=O)C2CC2)cc1Nc1cc(F)cc(-c2cc(C(=O)N3CCC(CCO)CC3)n(C)n2)c1OC [Example 509] | 6.77
[2H]C([2H])([2H])NC(=O)c1nnc(NC(=O)C2CC2)cc1Nc1cc(F)cc(-c2cc(C(=O)N(C)CCCN(C)C)n(C)n2)c1OC [Example 510] | 6.34
[2H]C([2H])([2H])NC(=O)c1nnc(NC(=O)C2CC2)cc1Nc1cc(F)cc(-c2cc(C(=O)N3CCC(c4ccccc4)CC3)n(C)n2)c1OC [Example 511] | 6.49
[2H]C([2H])([2H])NC(=O)c1nnc(NC(=O)C2CC2)cc1Nc1cc(F)cc(-c2cc(C(=O)N3CCc4ccccc4C3)n(C)n2)c1OC [Example 512] | 5.59
[2H]C([2H])([2H])NC(=O)c1nnc(NC(=O)C2CC2)cc1Nc1cc(F)cc(-c2cc(C(=O)NCCCCC)n(C)n2)c1OC [Example 513] | < 5.00
[2H]C([2H])([2H])NC(=O)c1nnc(NC(=O)C2CC2)cc1Nc1cc(F)cc(-c2cc(C(=O)N(C)CCN(C)C)n(C)n2)c1OC [Example 514] | 6.06
[2H]C([2H])([2H])NC(=O)c1nnc(NC(=O)C2CC2)cc1Nc1cc(F)cc(-c2cc(C(=O)N3CCC(N(C)C)CC3)n(C)n2)c1OC [Example 515] | 6.54
[2H]C([2H])([2H])NC(=O)c1nnc(NC(=O)C2CC2)cc1Nc1cc(F)cc(-c2cc(C(=O)N3CCC(N4CCCC4)CC3)n(C)n2)c1OC [Example 516] | 6.77
[2H]C([2H])([2H])NC(=O)c1nnc(NC(=O)C2CC2)cc1Nc1cc(F)cc(-c2cc(C(=O)N3CCCN(C)CC3)n(C)n2)c1OC [Example 517] | 6.46
[2H]C([2H])([2H])NC(=O)c1nnc(NC(=O)C2CC2)cc1Nc1cc(F)cc(-c2cc(C(=O)N3CCN(C(C)C)CC3)n(C)n2)c1OC [Example 518] | 6.82
[2H]C([2H])([2H])NC(=O)c1nnc(NC(=O)C2CC2)cc1Nc1cc(F)cc(-c2cc(C(=O)N3CCNC(=O)C3)n(C)n2)c1OC [Example 519] | 6.24
[2H]C([2H])([2H])NC(=O)c1nnc(NC(=O)C2CC2)cc1Nc1cccc(-c2cc(C(=O)N(C)CC(O)CO)n(C)n2)c1OC (centres unmarked) [Example 520] | 6.11
[2H]C([2H])([2H])NC(=O)c1nnc(NC(=O)C2CC2)cc1Nc1cccc(-c2cc(C(=O)NCC(O)CO)n(C)n2)c1OC (centres unmarked) [Example 521] | 5.62
[2H]C([2H])([2H])NC(=O)c1nnc(NC(=O)C2CC2)cc1Nc1cccc(-c2cc(C(=O)N3CCC(OC)C3)n(C)n2)c1OC (centres unmarked) [Example 522] | 6.72
[2H]C([2H])([2H])NC(=O)c1nnc(NC(=O)C2CC2)cc1Nc1cccc(-c2cc(C(=O)NC(CO)CO)n(C)n2)c1OC [Example 523] | 5.77

From patent US12240840B2, “Amide-substituted heterocyclic compounds for the treatment of conditions related to the modulation of IL-12, IL-23 and/or IFN-alpha” (BRISTOL-MYERS SQUIBB COMPANY, priority 2018, dated 2025)
